One experiment has as its target T1, D5 (Homo sapiens, UniProt P21918).
T1 construct: purchased NIMH Psychoactive Drug Screening Program (PDSP)
As to the kind of experiment: PDSP primary binding D5. As to conditions: 1.5 h; primary binding, 10,000 nM; last figure of the line = mean of the 4 before it; read-out: D5, PDSP raw data, mean. On the procedure: (§1) To determine if any off-target receptor-binding effects are present, all the novel ligands were sent to the National Institute of Mental Health (NIMH), Psychoactive Drug Screening Program (PDSP). The ligands were screened over a panel of 47 receptors, ion channels, and transporters to determine any other possible interactions with […]. The hERG-binding was also determined. […] No binding of the test compounds to calcium channels was observed. […] It is necessary to screen the compounds for hERG-binding during the early process of drug discovery. The unintentional binding of many drugs to hERG can cause blockade of hERG K+ channels in the heart, which can cause many side effects including cardiac arrhythmias and sudden death. […] All of the α5 imidazodiazepines were tested for hERG-binding.
(§2) The NIMH PDSP assay protocol book [https://kidbdev.med.unc.edu/databases/PDSP%20Protocols%20II%202013-03-28.pdf accessed on 23 April 2023]. describes the protocols for primary and secondary radio-ligand binding assays. These assays were carried out in a final volume of 125 µL per well in the appropriate binding buffer.
(§3) The binding of a ligand to a receptor, ion channel, or transporter was determined in the […] of 10 µM of the appropriate reference compound. […] Plates were incubated in the dark for 90 min at rt, and the reactions were stopped by vacuum filtration onto 0.3% polyethyleneimine (PEI) soaked 96-well filter mats using a 96-well Filtermateharvester. This was followed by three washes with cold PBS buffer. Radioactivity was then counted on a Microbeta counter. Nonlinear regression was used to analyze the data with N = 6 replicates.

In the next experiment the target is T2, 5-HT1A (Homo sapiens, UniProt P08908).
T2 construct: purchased NIMH Psychoactive Drug Screening Program (PDSP)
T2 sequence (P08908 1-422): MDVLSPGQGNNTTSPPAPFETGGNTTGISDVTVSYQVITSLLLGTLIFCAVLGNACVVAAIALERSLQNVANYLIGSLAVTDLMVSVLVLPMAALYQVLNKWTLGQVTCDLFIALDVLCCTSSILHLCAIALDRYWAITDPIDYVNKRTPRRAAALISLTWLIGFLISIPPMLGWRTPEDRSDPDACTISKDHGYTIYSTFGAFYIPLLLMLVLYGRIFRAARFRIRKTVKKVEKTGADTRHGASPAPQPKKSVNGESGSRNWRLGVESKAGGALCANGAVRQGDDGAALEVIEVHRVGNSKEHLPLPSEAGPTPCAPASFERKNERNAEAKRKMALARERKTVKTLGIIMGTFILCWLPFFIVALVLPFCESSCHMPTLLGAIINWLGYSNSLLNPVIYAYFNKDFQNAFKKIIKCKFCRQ
As to the kind of experiment: PDSP primary binding 5-HT1A. The following applies: 1.5 h; primary binding, 10,000 nM; last figure of the line = mean of the 4 before it; read-out: 5-HT1A, PDSP raw data, mean. How it is done:
as §1, §2, §3

The next experiment deals with T3, V1B (Homo sapiens, UniProt P47901).
T3 construct: purchased NIMH Psychoactive Drug Screening Program (PDSP)
T3 sequence (P47901 1-424): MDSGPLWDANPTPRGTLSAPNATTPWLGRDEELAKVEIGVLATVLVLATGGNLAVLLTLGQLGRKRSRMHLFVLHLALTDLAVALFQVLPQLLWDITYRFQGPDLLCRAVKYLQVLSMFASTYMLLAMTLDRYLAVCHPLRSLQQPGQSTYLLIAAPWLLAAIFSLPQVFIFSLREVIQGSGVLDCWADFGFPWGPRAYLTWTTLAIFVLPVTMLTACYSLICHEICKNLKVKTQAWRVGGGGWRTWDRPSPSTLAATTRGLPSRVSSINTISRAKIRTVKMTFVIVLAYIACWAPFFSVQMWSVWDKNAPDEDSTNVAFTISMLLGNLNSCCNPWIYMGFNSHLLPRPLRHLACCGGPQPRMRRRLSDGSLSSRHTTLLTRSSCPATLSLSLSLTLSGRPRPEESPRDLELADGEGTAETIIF
As to the kind of experiment: PDSP primary binding V1B. As to conditions: primary binding, 10,000 nM; last figure of the line = mean of the 4 before it; read-out: V1B, PDSP raw data, mean. How it is done: as §1, §2, §3

For another experiment, the target named is T4, DOR (Homo sapiens, UniProt P41143).
T4 construct: purchased NIMH Psychoactive Drug Screening Program (PDSP)
T4 sequence (P41143 whole entry): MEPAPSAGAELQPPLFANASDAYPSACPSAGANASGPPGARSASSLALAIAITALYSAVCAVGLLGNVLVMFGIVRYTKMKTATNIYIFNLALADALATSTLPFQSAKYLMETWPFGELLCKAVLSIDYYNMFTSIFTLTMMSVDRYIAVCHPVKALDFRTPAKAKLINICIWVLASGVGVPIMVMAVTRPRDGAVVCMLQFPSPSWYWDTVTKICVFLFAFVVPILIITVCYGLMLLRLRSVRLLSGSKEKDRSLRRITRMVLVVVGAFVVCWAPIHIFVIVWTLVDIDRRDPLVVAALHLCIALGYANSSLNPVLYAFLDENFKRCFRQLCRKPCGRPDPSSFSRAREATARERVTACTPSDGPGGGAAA
As to the kind of experiment: PDSP radioligand binding at DOR.
Text: Opioid receptors are a family of inhibitory G-coupled protein receptors where opioids act as the ligand. The kappa opioid receptors (KOR), µ and δ opioid receptors (MOR and DOR), and nociception opioid receptor (NOP) fall under the family of opioids receptors. It has been reported that oxadiazole imidazodiazepines can mediate analgesic and anti-inflammatory properties mediated also by the κ opioid receptor (KOR). The binding at KOR is usually silent. The affinities of the test compounds for KOR, DOR, and MOR were determined using radioligand binding assays at a screening concentration of 10,000 nM in collaboration with the National Institute of Mental Health’s Psychoactive Drug Screening Program (PDSP), as mentioned before. Concentration-dependent experiments were conducted to determine Ki values for the compounds that exceeded more than 50% radioligand displacement in primary binding assays.
as §2, §3

The subject of another experiment is AMPA. As to the kind of experiment: PDSP primary binding AMPA. The following applies: primary binding, 10,000 nM; last figure of the line = mean of the 4 before it. On the procedure:
as §1, §2, §3

Another experiment addresses T5, NET (Homo sapiens, UniProt P23975).
T5 construct: purchased NIMH Psychoactive Drug Screening Program (PDSP)
As to the kind of experiment: PDSP primary binding NET. As to conditions: primary binding, 10,000 nM; last figure of the line = mean of the 4 before it; read-out: NET, PDSP raw data, mean. How it is done: as §1, §2, §3

The target in the next experiment is T6, 5-HT2B (Homo sapiens, UniProt P41595).
T6 construct: purchased NIMH Psychoactive Drug Screening Program (PDSP)
T6 sequence (P41595 whole entry): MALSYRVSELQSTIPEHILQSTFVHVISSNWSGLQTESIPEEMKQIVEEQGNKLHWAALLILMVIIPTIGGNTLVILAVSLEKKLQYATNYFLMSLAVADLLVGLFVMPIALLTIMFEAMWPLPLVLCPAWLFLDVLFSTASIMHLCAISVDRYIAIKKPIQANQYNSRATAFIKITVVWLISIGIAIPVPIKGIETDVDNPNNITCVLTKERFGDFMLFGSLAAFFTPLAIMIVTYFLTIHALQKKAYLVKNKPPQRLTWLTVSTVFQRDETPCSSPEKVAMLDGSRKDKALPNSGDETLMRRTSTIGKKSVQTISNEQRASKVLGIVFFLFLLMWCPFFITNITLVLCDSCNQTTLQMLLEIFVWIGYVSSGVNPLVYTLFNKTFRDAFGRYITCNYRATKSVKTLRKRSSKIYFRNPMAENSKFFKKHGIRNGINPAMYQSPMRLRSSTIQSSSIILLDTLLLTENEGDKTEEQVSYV
As to the kind of experiment: PDSP primary binding 5-HT2B. The following applies: 1.5 h; primary binding, 10,000 nM; last figure of the line = mean of the 4 before it; read-out: 5-HT2B, PDSP raw data, mean. How it is done: as §1, §2, §3

In another experiment the target is T7, 5-HT2A (Homo sapiens, UniProt P28223).
T7 construct: purchased NIMH Psychoactive Drug Screening Program (PDSP)
T7 sequence (P28223 whole entry): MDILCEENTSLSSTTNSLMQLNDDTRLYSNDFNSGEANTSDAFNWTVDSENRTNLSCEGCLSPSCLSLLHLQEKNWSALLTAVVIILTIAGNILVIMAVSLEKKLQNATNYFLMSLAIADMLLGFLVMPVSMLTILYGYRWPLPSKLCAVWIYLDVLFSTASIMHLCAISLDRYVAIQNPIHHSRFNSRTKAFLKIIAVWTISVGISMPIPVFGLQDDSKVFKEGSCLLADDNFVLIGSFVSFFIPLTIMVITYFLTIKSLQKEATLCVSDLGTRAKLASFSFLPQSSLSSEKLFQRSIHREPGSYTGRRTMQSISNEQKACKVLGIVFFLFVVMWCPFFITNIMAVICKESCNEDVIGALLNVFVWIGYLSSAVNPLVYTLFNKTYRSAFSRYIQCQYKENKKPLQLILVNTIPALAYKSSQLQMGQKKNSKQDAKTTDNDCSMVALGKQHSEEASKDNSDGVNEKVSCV
As to the kind of experiment: PDSP primary binding 5-HT2A. The following applies: 1.5 h; primary binding, 10,000 nM; last figure of the line = mean of the 4 before it; read-out: 5-HT2A, PDSP raw data, mean. How it is done:
as §1, §2, §3

Another experiment concerns the target T8, V2 (Homo sapiens, UniProt P30518).
T8 construct: purchased NIMH Psychoactive Drug Screening Program (PDSP)
As to the kind of experiment: PDSP primary binding V2. The following applies: primary binding, 10,000 nM; last figure of the line = mean of the 4 before it; read-out: V2, PDSP raw data, mean. On the procedure: as §1, §2, §3

In another experiment the test system is Alpha7. As to the kind of experiment: PDSP primary binding Alpha7. As to conditions: primary binding, 10,000 nM; last figure of the line = mean of the 4 before it. How it is done: as §1, §2, §3
A further experiment concerns the target T9, D2 (Homo sapiens, UniProt P14416).
T9 construct: purchased NIMH Psychoactive Drug Screening Program (PDSP)
As to the kind of experiment: PDSP primary binding D2. As to conditions: 1.5 h; primary binding, 10,000 nM; last figure of the line = mean of the 4 before it; read-out: D2, PDSP raw data, mean. How it is done:
as §1, §2, §3

[1] abbreviates: at 10,000 nM, N = 5, [3H]-DADLE 2.69 nM, read-out: Primary Binding %DOR.
[2] abbreviates: primary binding, 10,000 nM, last figure of the line = mean of the 4 before it, read-out: DOR, PDSP raw data, mean.

Structures are written as SMILES. Where two headings read alike, the source gives them in different places.

T8 sequence (P30518 whole entry): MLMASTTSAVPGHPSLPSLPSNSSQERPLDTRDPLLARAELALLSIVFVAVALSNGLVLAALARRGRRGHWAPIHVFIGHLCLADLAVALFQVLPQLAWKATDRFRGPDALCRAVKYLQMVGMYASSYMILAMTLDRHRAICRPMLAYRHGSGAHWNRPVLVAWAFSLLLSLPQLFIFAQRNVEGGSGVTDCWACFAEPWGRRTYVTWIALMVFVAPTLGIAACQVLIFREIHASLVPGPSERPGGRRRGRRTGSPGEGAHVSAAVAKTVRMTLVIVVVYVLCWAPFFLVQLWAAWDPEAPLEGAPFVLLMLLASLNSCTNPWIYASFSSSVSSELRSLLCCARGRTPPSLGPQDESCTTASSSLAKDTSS
T9 sequence (P14416 whole entry): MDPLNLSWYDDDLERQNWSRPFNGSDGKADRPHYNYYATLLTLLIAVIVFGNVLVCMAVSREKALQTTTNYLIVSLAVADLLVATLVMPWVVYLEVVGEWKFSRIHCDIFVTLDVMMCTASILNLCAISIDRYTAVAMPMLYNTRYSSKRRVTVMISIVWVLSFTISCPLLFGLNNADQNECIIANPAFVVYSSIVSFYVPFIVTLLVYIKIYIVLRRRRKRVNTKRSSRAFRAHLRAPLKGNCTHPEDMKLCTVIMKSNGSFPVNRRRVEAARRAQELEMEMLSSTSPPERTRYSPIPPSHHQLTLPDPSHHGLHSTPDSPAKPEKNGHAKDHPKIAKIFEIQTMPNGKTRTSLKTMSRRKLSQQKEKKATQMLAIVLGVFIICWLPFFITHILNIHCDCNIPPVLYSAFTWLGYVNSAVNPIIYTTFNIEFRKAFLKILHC
T1 sequence (P21918 whole entry): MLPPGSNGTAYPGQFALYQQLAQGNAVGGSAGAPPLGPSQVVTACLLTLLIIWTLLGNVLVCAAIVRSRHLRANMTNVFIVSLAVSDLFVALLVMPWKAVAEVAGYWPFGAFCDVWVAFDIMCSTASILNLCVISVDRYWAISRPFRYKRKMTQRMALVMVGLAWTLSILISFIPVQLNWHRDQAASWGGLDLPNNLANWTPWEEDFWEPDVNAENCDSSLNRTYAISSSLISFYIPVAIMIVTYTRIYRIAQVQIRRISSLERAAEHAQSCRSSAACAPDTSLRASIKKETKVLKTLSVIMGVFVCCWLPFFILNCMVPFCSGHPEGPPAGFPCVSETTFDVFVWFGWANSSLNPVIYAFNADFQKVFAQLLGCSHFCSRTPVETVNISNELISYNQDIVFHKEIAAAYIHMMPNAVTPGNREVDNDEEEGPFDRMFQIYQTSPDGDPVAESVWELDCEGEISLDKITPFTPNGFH
T5 sequence (P23975 whole entry): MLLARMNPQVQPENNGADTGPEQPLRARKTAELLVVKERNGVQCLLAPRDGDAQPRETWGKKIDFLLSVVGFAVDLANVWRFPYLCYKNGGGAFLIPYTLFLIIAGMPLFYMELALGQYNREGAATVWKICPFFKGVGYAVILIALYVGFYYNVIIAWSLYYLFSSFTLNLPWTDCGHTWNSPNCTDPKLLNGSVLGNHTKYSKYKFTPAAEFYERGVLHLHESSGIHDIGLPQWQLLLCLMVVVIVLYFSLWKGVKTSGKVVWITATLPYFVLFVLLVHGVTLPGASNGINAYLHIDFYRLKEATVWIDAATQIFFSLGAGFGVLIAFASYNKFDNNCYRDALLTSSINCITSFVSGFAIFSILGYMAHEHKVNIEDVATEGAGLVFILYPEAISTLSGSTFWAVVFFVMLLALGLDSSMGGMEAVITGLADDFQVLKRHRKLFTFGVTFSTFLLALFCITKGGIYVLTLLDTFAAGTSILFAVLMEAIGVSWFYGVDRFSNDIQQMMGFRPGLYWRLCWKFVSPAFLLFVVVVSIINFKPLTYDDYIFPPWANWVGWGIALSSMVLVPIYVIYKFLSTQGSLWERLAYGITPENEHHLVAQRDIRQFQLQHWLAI

Take `CCc1noc(-c2ncn3c2[C@@H](C)N=C(c2ccccc2F)c2cc(Cl)ccc2-3)n1` [Compound 36, (R)-5-(8-Chloro-6-(2′-fluorophenyl)-4-methyl-4H-benzo[f]imidazo[1,5-a][1,4]diazepin-3-yl)-3-ethyl-1,2,4-oxadiazole]: the inhibition at 10 µM at D5 is 3.16%; on 5-HT1A, 3%; at V1B, 22.9%; at DOR (setting [1]), 40.7 ± 10.2%; at DOR (setting [2]), 40.7%; at NET, -2.36%. Also, the inhibition at 10 µM on 5-HT2B turned out to be 3.47%; at 5-HT2A it was 11.1%; on V2 it was 12.6%; on D2 it was 3.17%. The “AMPA, PDSP raw data, mean” value with AMPA is on record as -24.14%. Further, the “Alpha7, PDSP raw data, mean” value in the experiment with Alpha7 was -13.86%.

Consider `CC(C)c1noc(-c2ncn3c2[C@@H](C)N=C(c2ccccc2F)c2cc(Cl)ccc2-3)n1` [Compound 37, (R)-5-(8-Chloro-6-(2′-fluorophenyl)-4-methyl-4H-benzo[f]imidazo[1,5-a][1,4]diazepin-3-yl)-3-isopropyl-1,2,4-oxadiazole], for which the inhibition at 10 µM is 17.1% on D5; -6% at 5-HT1A; -15.4% at V1B; 31.9 ± 9.58% at DOR (setting [1]); 31.9% on DOR (setting [2]); 9.04% at NET. Besides, the inhibition at 10 µM is 8.56% on 5-HT2B, 14.1% on 5-HT2A, -7.17% at V2 and 18.2% at D2. Also, the “AMPA, PDSP raw data, mean” value in the experiment with AMPA came to 20.59%. Moreover, the “Alpha7, PDSP raw data, mean” value with Alpha7 is 21.26%.

On to `C[C@H]1N=C(c2ccccc2F)c2cc(Cl)ccc2-n2cnc(-c3nc(C4CC4)no3)c21` [Compound 38, (R)-5-(8-Chloro-6-(2′-fluorophenyl)-4-methyl-4H-benzo[f]imidazo[1,5-a][1,4]diazepin-3-yl)-3-cyclopropyl-1,2,4-oxadiazole], for which the inhibition at 10 µM at D5 was 14.1%; at 5-HT1A, -1.57%; on V1B, -7.2%; on DOR (setting [1]), 42.8 ± 8.94%; at DOR (setting [2]), 42.7%; on NET, -0.22%. The inhibition at 10 µM turned out to be 10% on 5-HT2B, 11.6% at 5-HT2A, 5.48% at V2 and 21.8% at D2. For the same molecule, in the experiment on AMPA, the “AMPA, PDSP raw data, mean” value turned out to be 21.42%. Also, in the experiment with Alpha7, the “Alpha7, PDSP raw data, mean” value was found to be 11.55%.

In the case of `CCc1noc(-c2ncn3c2CN=C(c2ccccc2F)c2cc(C4CC4)ccc2-3)n1` [Compound 44, 5-(8-Cyclopropyl-6-(2′-fluorophenyl)-4H-benzo[f]imidazo[1,5-a][1,4]diazepin-3-yl)-3-ethyl-1,2,4-oxadiazole], the inhibition at 10 µM amounted to 9.06% on D5; 36.1% at 5-HT1A; 35.7% on V1B; 81.3 ± 4.76% at DOR (setting [1]); 81.3% on DOR (setting [2]); 4.9% on NET. For the same molecule, the inhibition at 10 µM at 5-HT2B worked out at 18.5%; on 5-HT2A, 21.2%; at V2 it was 27.7%; at D2 it was 0.67%. In the experiment on AMPA, the “AMPA, PDSP raw data, mean” value is -9.33%. The “Alpha7, PDSP raw data, mean” value in the experiment with Alpha7 was -24.22%.

Consider `CCc1noc(-c2ncn3c2[C@@H](C)N=C(c2ccccc2F)c2cc(C4CC4)ccc2-3)n1` [Compound 46, (R)-5-(8-Cyclopropyl-6-(2′-fluorophenyl)-4-methyl-4H-benzo[f]imidazo[1,5-a][1,4]diazepin-3-yl)-3-ethyl-1,2,4-oxadiazole], for which the inhibition at 10 µM at D5 was 51.2%; on 5-HT1A, 17.8%; at V1B, 2.67%; at DOR (setting [2]), 67.3%; at NET it was 24.3%; on 5-HT2B, 25.1%. Besides, the inhibition at 10 µM at 5-HT2A came to 23.6%; at V2, 48.4%; on D2 it was 4.73%. Moreover, the “AMPA, PDSP raw data, mean” value with AMPA is 0.81%. For the same molecule, the “Alpha7, PDSP raw data, mean” value in the experiment with Alpha7 is reported as 4.57%.

Source of the values: article PMC10303271, “Synthesis and Receptor Binding Studies of α5 GABAAR Selective Novel Imidazodiazepines Targeted for Psychiatric and Cognitive Disorders” (Molecules, 2023).
